Laboratory results taken from PubChem BioAssay AID1918945 (Molecular Pharmacology Branch, DTP, NCI, 2023).
Several values for one entry are separate records, joined by “and”; a condition that tells them apart may be missing. Equal entries are not always repeated.

Tested on: 883617-216-R-J1-PDC complex spheroid viability
Assay: Anticancer human tumor 883617-216-R-J1-PDC patient-derived bladder carcinoma cell line growth inhibition
Conditions: for viability, T/C: stronger effect = lower value
Outline: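 Complex spheroids of tumor cells with HUVEC and human MSCs, exposed to iadademstat combined with other agents. Each agent tested in half-log steps from near clinical Cmax (else 10 microM top), DMSO ≤0.25%.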

[1] = curve of first compound, second compound 0.1 µM
[2] = curve of first compound, second compound 0.316 µM
[3] = curve of first compound, second compound 1 µM
[4] = curve of first compound, second compound 3.16 µM
[5] = curve of first compound, second compound 10 µM
[6] = second compound 0.1 µM, first compound 0.00949 µM
[7] = second compound 0.1 µM, first compound 0.03 µM
[8] = second compound 0.1 µM, first compound 0.0949 µM
[9] = second compound 0.1 µM, first compound 0.3 µM
[10] = second compound 0.1 µM, first compound 0.949 µM
[11] = second compound 0.1 µM, first compound 3 µM
[12] = second compound 0.316 µM, first compound 0.00949 µM
[13] = second compound 0.316 µM, first compound 0.03 µM
[14] = second compound 0.316 µM, first compound 0.0949 µM
[15] = second compound 0.316 µM, first compound 0.3 µM
[16] = second compound 0.316 µM, first compound 0.949 µM
[17] = second compound 0.316 µM, first compound 3 µM
[18] = second compound 1 µM, first compound 0.00949 µM
[19] = second compound 1 µM, first compound 0.03 µM
[20] = second compound 1 µM, first compound 0.0949 µM
[21] = second compound 1 µM, first compound 0.3 µM
[22] = second compound 1 µM, first compound 0.949 µM
[23] = second compound 1 µM, first compound 3 µM
[24] = second compound 3.16 µM, first compound 0.00949 µM
[25] = second compound 3.16 µM, first compound 0.03 µM
[26] = second compound 3.16 µM, first compound 0.0949 µM
[27] = second compound 3.16 µM, first compound 0.3 µM
[28] = second compound 3.16 µM, first compound 0.949 µM
[29] = second compound 3.16 µM, first compound 3 µM
[30] = second compound 10 µM, first compound 0.00949 µM
[31] = second compound 10 µM, first compound 0.03 µM
[32] = second compound 10 µM, first compound 0.0949 µM
[33] = second compound 10 µM, first compound 0.3 µM
[34] = second compound 10 µM, first compound 0.949 µM
[35] = second compound 10 µM, first compound 3 µM
[36] = second compound 0.1 µM, first compound 0.0316 µM
[37] = second compound 0.1 µM, first compound 0.1 µM
[38] = second compound 0.316 µM, first compound 0.0316 µM
[39] = second compound 0.316 µM, first compound 0.1 µM
[40] = second compound 1 µM, first compound 0.0316 µM
[41] = second compound 1 µM, first compound 0.1 µM
[42] = second compound 3.16 µM, first compound 0.0316 µM
[43] = second compound 3.16 µM, first compound 0.1 µM
[44] = second compound 10 µM, first compound 0.0316 µM
[45] = second compound 10 µM, first compound 0.1 µM
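Also: exposure lasted seven days after three days of spheroid growth.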
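For viability, T/C in this document: 100% = DMSO vehicle control luminescence.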

## O=C(C=Cc1cccc(S(=O)(=O)Nc2ccccc2)c1)NO + NC1CCC(NC2CC2c2ccccc2)CC1
[1]
  IC50: 142 nM
[2]
  IC50: 131 nM
[3]
  IC50: 139 nM
[4]
  IC50: 139 nM
[5]
  IC50: 124 nM
[6]
  viability, T/C: 102%
[7]
  viability, T/C: 92.8%
[8]
  viability, T/C: 55.3%
[9]
  viability, T/C: 31.2%
[10]
  viability, T/C: 20.7%
[11]
  viability, T/C: 2.88%
[12]
  viability, T/C: 108%
[13]
  viability, T/C: 98.6%
[14]
  viability, T/C: 50%
[15]
  viability, T/C: 31.7%
[16]
  viability, T/C: 20.9%
[17]
  viability, T/C: 2.02%
[18]
  viability, T/C: 95.7%
[19]
  viability, T/C: 84.3%
[20]
  viability, T/C: 57.4%
[21]
  viability, T/C: 30.8%
[22]
  viability, T/C: 18.9%
[23]
  viability, T/C: 2.72%
[24]
  viability, T/C: 101%
[25]
  viability, T/C: 84.2%
[26]
  viability, T/C: 55.7%
[27]
  viability, T/C: 34.2%
[28]
  viability, T/C: 17.8%
[29]
  viability, T/C: 2.63%
[30]
  viability, T/C: 99.5%
[31]
  viability, T/C: 76.4%
[32]
  viability, T/C: 55.3%
[33]
  viability, T/C: 32.6%
[34]
  viability, T/C: 19.6%
[35]
  viability, T/C: 1.64%

## NS(=O)(=O)OCC1CC(n2ccc3c(NC4CCc5ccccc54)ncnc32)CC1O (stereo unspecified)
Compound 0.00949 µM
  viability, T/C: 105% and 114%
Compound 0.03 µM
  viability, T/C: 120% and 108%
Compound 0.0949 µM
  viability, T/C: 103% and 94.9%
Compound 0.3 µM
  viability, T/C: 59.1% and 27.2%
Compound 0.949 µM
  viability, T/C: 21.5% and 8.78%
Compound 3 µM
  viability, T/C: 14% and 6.66%
Curve of compound
  IC50: 395 nM and 204 nM

## CCN(c1cc(-c2ccc(CN3CCOCC3)cc2)cc(C(=O)NCc2c(C)cc(C)[nH]c2=O)c1C)C1CCOCC1
Compound 0.00949 µM
  viability, T/C: 98.4% and 76.7%
Compound 0.03 µM
  viability, T/C: 84.1% and 80.7%
Compound 0.0949 µM
  viability, T/C: 85.5% and 79.5%
Compound 0.3 µM
  viability, T/C: 87.4% and 70.5%
Compound 0.949 µM
  viability, T/C: 89.7% and 63.1%
Compound 3 µM
  viability, T/C: 77.4% and 63.9%
Curve of compound
  IC50: > 3000 nM

## COc1ccc([C@@H](O)c2cc(-c3ncnc4cc(N5CCOCC5)ccc34)c(F)cc2Cl)nn1 + NC1CCC(NC2CC2c2ccccc2)CC1
[1]
  IC50: 1200 nM
[2]
  IC50: 1370 nM
[3]
  IC50: 1320 nM
[4]
  IC50: 1080 nM
[5]
  IC50: 1560 nM
[36]
  viability, T/C: 97.8%
[37]
  viability, T/C: 90.3%
Second compound 0.1 µM, first compound 0.316 µM
  viability, T/C: 72%
Second compound 0.1 µM, first compound 1 µM
  viability, T/C: 50.2%
Second compound 0.1 µM, first compound 3.16 µM
  viability, T/C: 38.2%
Second compound 0.1 µM, first compound 10 µM
  viability, T/C: 20.7%
[38]
  viability, T/C: 103%
[39]
  viability, T/C: 90.8%
Second compound 0.316 µM, first compound 0.316 µM
  viability, T/C: 73.6%
Second compound 0.316 µM, first compound 1 µM
  viability, T/C: 53.2%
Second compound 0.316 µM, first compound 3.16 µM
  viability, T/C: 38.5%
Second compound 0.316 µM, first compound 10 µM
  viability, T/C: 19.2%
[40]
  viability, T/C: 101%
[41]
  viability, T/C: 91.3%
Second compound 1 µM, first compound 0.316 µM
  viability, T/C: 83.2%
Second compound 1 µM, first compound 1 µM
  viability, T/C: 52.7%
Second compound 1 µM, first compound 3.16 µM
  viability, T/C: 35.1%
Second compound 1 µM, first compound 10 µM
  viability, T/C: 21%
[42]
  viability, T/C: 97.6%
[43]
  viability, T/C: 93.2%
Second compound 3.16 µM, first compound 0.316 µM
  viability, T/C: 73.7%
Second compound 3.16 µM, first compound 1 µM
  viability, T/C: 51.7%
Second compound 3.16 µM, first compound 3.16 µM
  viability, T/C: 32.1%
Second compound 3.16 µM, first compound 10 µM
  viability, T/C: 21.9%
[44]
  viability, T/C: 100%
[45]
  viability, T/C: 93.2%
Second compound 10 µM, first compound 0.316 µM
  viability, T/C: 70.2%
Second compound 10 µM, first compound 1 µM
  viability, T/C: 56.3%
Second compound 10 µM, first compound 3.16 µM
  viability, T/C: 41.4%
Second compound 10 µM, first compound 10 µM
  viability, T/C: 19.8%

## O=C(C=Cc1cccc(S(=O)(=O)Nc2ccccc2)c1)NO + NC1CC1c1ccc(-c2cccc(O)c2)cc1
[1]
  IC50: 89.8 nM
[2]
  IC50: 89.8 nM
[3]
  IC50: 69.8 nM
[4]
  IC50: 59.8 nM
[5]
  IC50: 36.7 nM
[6]
  viability, T/C: 105%
[7]
  viability, T/C: 76.1%
[8]
  viability, T/C: 44.8%
[9]
  viability, T/C: 30.9%
[10]
  viability, T/C: 12.9%
[11]
  viability, T/C: 0.56%
[12]
  viability, T/C: 116%
[13]
  viability, T/C: 83.8%
[14]
  viability, T/C: 42.7%
[15]
  viability, T/C: 28.7%
[16]
  viability, T/C: 12%
[17]
  viability, T/C: 0.43%
[18]
  viability, T/C: 106%
[19]
  viability, T/C: 72.3%
[20]
  viability, T/C: 38.5%
[21]
  viability, T/C: 25.8%
[22]
  viability, T/C: 11.9%
[23]
  viability, T/C: 0.47%
[24]
  viability, T/C: 105%
[25]
  viability, T/C: 67.7%
[26]
  viability, T/C: 35.5%
[27]
  viability, T/C: 23.5%
[28]
  viability, T/C: 10.8%
[29]
  viability, T/C: 0.43%
[30]
  viability, T/C: 79.6%
[31]
  viability, T/C: 53.2%
[32]
  viability, T/C: 30.7%
[33]
  viability, T/C: 23.4%
[34]
  viability, T/C: 11.6%
[35]
  viability, T/C: 0.29%

## O=C(c1cc(Cc2n[nH]c(=O)c3ccccc23)ccc1F)N1CCN(C(=O)C2CC2)CC1
Compound 0.0316 µM
  viability, T/C: 90.5% and 78.2%
Compound 0.1 µM
  viability, T/C: 99.3% and 78.3%
Compound 0.316 µM
  viability, T/C: 92.2% and 59.4%
Compound 1 µM
  viability, T/C: 75.5% and 42.5%
Compound 3.16 µM
  viability, T/C: 54.9% and 41.5%
Compound 10 µM
  viability, T/C: 43.3% and 30.9%
Curve of compound
  IC50: 4910 nM and 633 nM

## CC[C@@]1(O)C(=O)OCc2c1cc1n(c2=O)Cc2cc3c(CN(C)C)c(O)ccc3nc2-1 + NC1CC1c1ccc(-c2cccc(O)c2)cc1
[1]
  IC50: 2.14 nM
[2]
  IC50: 2.24 nM
[3]
  IC50: 2.07 nM
[4]
  IC50: 1.42 nM
[5]
  IC50: 0.862 nM
Second compound 0.1 µM, first compound 0.000316 µM
  viability, T/C: 97.4%
Second compound 0.1 µM, first compound 0.001 µM
  viability, T/C: 61.4%
Second compound 0.1 µM, first compound 0.00316 µM
  viability, T/C: 45.5%
Second compound 0.1 µM, first compound 0.01 µM
  viability, T/C: 30.5%
[36]
  viability, T/C: 24.3%
[37]
  viability, T/C: 19.4%
Second compound 0.316 µM, first compound 0.000316 µM
  viability, T/C: 94.8%
Second compound 0.316 µM, first compound 0.001 µM
  viability, T/C: 73.4%
Second compound 0.316 µM, first compound 0.00316 µM
  viability, T/C: 37.9%
Second compound 0.316 µM, first compound 0.01 µM
  viability, T/C: 30.4%
[38]
  viability, T/C: 22.9%
[39]
  viability, T/C: 19.1%
Second compound 1 µM, first compound 0.000316 µM
  viability, T/C: 93.7%
Second compound 1 µM, first compound 0.001 µM
  viability, T/C: 71.5%
Second compound 1 µM, first compound 0.00316 µM
  viability, T/C: 36.9%
Second compound 1 µM, first compound 0.01 µM
  viability, T/C: 27.2%
[40]
  viability, T/C: 24.6%
[41]
  viability, T/C: 21.2%
Second compound 3.16 µM, first compound 0.000316 µM
  viability, T/C: 93.8%
Second compound 3.16 µM, first compound 0.001 µM
  viability, T/C: 57.6%
Second compound 3.16 µM, first compound 0.00316 µM
  viability, T/C: 32.2%
Second compound 3.16 µM, first compound 0.01 µM
  viability, T/C: 27.9%
[42]
  viability, T/C: 24.2%
[43]
  viability, T/C: 17.9%
Second compound 10 µM, first compound 0.000316 µM
  viability, T/C: 76.1%
Second compound 10 µM, first compound 0.001 µM
  viability, T/C: 42.2%
Second compound 10 µM, first compound 0.00316 µM
  viability, T/C: 35.3%
Second compound 10 µM, first compound 0.01 µM
  viability, T/C: 26.6%
[44]
  viability, T/C: 24.2%
[45]
  viability, T/C: 16.9%
